# Where a name gives a salt, the structure may show the parent alone.
# Target: T1, human XIAP_BIR3 domain purified protein (Homo sapiens, UniProt P98170)
# T1 construct: purchased R & D
# Experiment: XIAP binding inhibitory activity, HTRF method with b-Smac ligand
# Conditions: test compound 3 μM; first symbol of the cell; read-out: XIAP binding inhibition rate when the concentration of the test compound is 3 μM
# Method: Human XIAP binding inhibitory activity were measured by the Homogeneous Time Resolved Fluorescence (HTRF) method with using commercially available human XIAP_BIR3 domain purified protein (R & D) and as a ligand a Smac N-terminal peptide (AVPIAQK (SEQ ID NO: 1)) (hereinafter referred to as “b-Smac”; Peptide Research Laboratories, Inc.) biotinylated at the C-terminus according to a conventional method.
# The HTRF method will be described in detail below. A test compound diluted with a reaction buffer was added to a 384-well white shallow bottom plate (Greiner 784076) at 1 μL/well and flash centrifuged for 30 seconds. Subsequently, human XIAP_BIR3 domain purified protein was diluted with the reaction buffer (25 mM HEPES Buffer containing 100 mM NaCl, 0.1% BSA, and 0.1% triton X-100, pH 7.5) to obtain a 90 nM sample diluent, and the resultant sample diluent was added to the above-mentioned white superficial plate at 4.5 μL/well and flash centrifuged for 30 seconds. Subsequently, b-Smac diluted to 90 nM with the reaction buffer was added to the above-mentioned white superficial plat at 4.5 μL/well and flash centrifuged for 30 seconds. A mixed solution of Anti-6 HIS-Cryptate (Eu3+Cryptate-conjugated mouse monoclonal antibody anti-6 Histidine; cisbio) and Streptavidin-XL^ent! (Highgrade XL665-conjugated streptavidin; cisbio) both diluted 100-fold with HTRF detection buffer (cisbio) at a volume ratio of 1:1 was added to the above white superficial plate at 10 μL/well. After flash centrifuging the white shallow bottom plate for 30 seconds, the white shallow bottom plate was left at room temperature for 4 hours or more in the dark. The white superficial plate after being left was subjected to fluorescence intensity measurement (excitation wavelength: 320 nm, fluorescence wavelength: 665 nm and 615 nm) by EnVision (Perkin Elmer).
# The binding inhibition rate (%) was calculated based on the HTRF ratio in the presence of the test compound to the HTRF ratio in the absence of the test compound (fluorescence intensity at 665 nm/fluorescence intensity at 615 nm).
# T1 sequence (P98170 252-356 limits assumed): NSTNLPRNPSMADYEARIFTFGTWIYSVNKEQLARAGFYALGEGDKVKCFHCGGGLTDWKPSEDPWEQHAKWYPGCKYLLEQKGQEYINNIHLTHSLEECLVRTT
row,inhibition at 3 µM [%],SMILES
1,25 to 50,"CN[C@@H](C)C(=O)N[C@H](C(=O)N1CCN(C(=O)c2c(OCCOCCOCCO)c3cc(F)c(F)cc3n2C)CC1)C1CCCCC1 (stereo in doubt) [Example 62, (S)—N—((S)-1-Cyclohexyl-2-(4-(5,6-difluoro-3-(2-(2-(2-hydroxyethoxy)ethoxy)ethoxy)-1-methyl-1H-indole-2-carbonyl)piperazin-1-yl)-2-oxoethyl)-2-(methylamino)propanamide]"
2,> 75,"CN[C@@H](C)C(=O)N[C@H](C(=O)N1CCN(C(=O)c2cc3ccc(OC)cc3n2C)CC1)C1CCCCC1 [Example 1, (S)—N—((S)-1-Cyclohexyl-2-(4-(6-methoxy-1-methyl-1H-indole-2-carbonyl)piperazin-1-yl)-2-oxoethyl)-2-(methylamino)propanamide Hydrochloride]"
3,25 to 50,"CN[C@@H](C)C(=O)N[C@H](C(=O)N1CCN(C(=O)c2ccn3nccc3c2)CC1)C1CCCCC1 [Example 2, (S)-N-((S)-1-cyclohexyl-2-oxo-2-(4-(pyrazolo[1,5-a]pyridine-5-carbonyl)piperazin-1-yl)ethyl)-2-(methylamino)propanamide]"
4,25 to 50,"CN[C@@H](C)C(=O)N[C@H](C(=O)N1CCN(C(=O)c2cc3ccnn3cc2C)CC1)C1CCCCC1 [Example 3, (S)-N-((S)-1-cyclohexyl-2-(4-(6-methylpyrazolo[1,5-a]pyridine-5-carbonyl)piperazin-1-yl)-2-oxoethyl)-2-(methylamino)propanamide]"
5,50 to 75,"CN[C@@H](C)C(=O)N[C@H](C(=O)N1CCN(C(=O)c2ccn3nccc3c2C)CC1)C1CCCCC1 [Example 4, (S)-N-((S)-1-cyclohexyl-2-(4-(4-methylpyrazolo[1,5-a]pyridine-5-carbonyl)piperazin-1-yl)-2-oxoethyl)-2-(methylamino)propanamide]"
6,25 to 50,"CN[C@@H](C)C(=O)N[C@H](C(=O)N1CCN(C(=O)c2ccn3nccc3c2F)CC1)C1CCCCC1 [Example 5, (S)-N-((S)-1-cyclohexyl-2-(4-(4-fluoropyrazolo[1,5-a]pyridine-5-carbonyl)piperazin-1-yl)-2-oxoethyl)-2-(methylamino)propanamide]"
7,> 25,"CN[C@@H](C)C(=O)N[C@H](C(=O)N1CCN(C(=O)c2cc3ccnn3cc2F)CC1)C1CCCCC1 [Example 6, (S)-N-((S)-1-cyclohexyl-2-(4-(6-fluoropyrazolo[1,5-a]pyridine-5-carbonyl)piperazin-1-yl)-2-oxoethyl)-2-(methylamino)propanamide]"
8,> 75,"CN[C@@H](C)C(=O)N[C@H](C(=O)N1CCN(C(=O)c2cc3ccccn3c2)CC1)C1CCCCC1 [Example 7, (S)-N-((S)-1-cyclohexyl-2-(4-(indolizine-2-carbonyl)piperazin-1-yl)-2-oxoethyl)-2-(methylamino)propanamide]"
9,> 25,"CN[C@@H](C)C(=O)N[C@H](C(=O)N1CCN(C(=O)c2cc(OCCOC)nn2C)CC1)C1CCCCC1 [Example 8, (S)-N-((S)-1-cyclohexyl-2-(4-(3-(2-methoxyethoxy)-1-methyl-1H-pyrazole-5-carbonyl)piperazin-1-yl)-2-oxoethyl)-2-(methylamino)propanamide]"
10,> 25,"CN[C@@H](C)C(=O)N[C@H](C(=O)N1CCN(C(=O)c2cc(C3CC3)nn2C)CC1)C1CCCCC1 [Example 9, (S)-N-((S)-1-cyclohexyl-2-(4-(3-cyclopropyl-1-methyl-1H-pyrazole-5-carbonyl)piperazin-1-yl)-2-oxoethyl)-2-(methylamino)propanamide]"
11,> 25,"CCCc1cc(C(=O)N2CCN(C(=O)[C@@H](NC(=O)[C@H](C)NC)C3CCCCC3)CC2)n(C)n1 [Example 10, (S)-N-((S)-1-cyclohexyl-2-(4-(1-methyl-3-propyl-1H-pyrazole-5-carbonyl)piperazin-1-yl)-2-oxoethyl)-2-(methylamino)propanamide]"
12,> 25,"CN[C@@H](C)C(=O)N[C@H](C(=O)N1CCN(C(=O)c2cc(C(F)(F)F)nn2C)CC1)C1CCCCC1 [Example 11, (S)-N-((S)-1-cyclohexyl-2-(4-(1-methyl-3-(trifluoromethyl)-1H-pyrazole-5-carbonyl)piperazin-1-yl)-2-oxoethyl)-2-(methylamino)propanamide]"
13,> 25,"CCOc1cc(C(=O)N2CCN(C(=O)[C@@H](NC(=O)[C@H](C)NC)C3CCCCC3)CC2)n(C)n1 [Example 12, (S)-N-((S)-1-cyclohexyl-2-(4-(3-ethoxy-1-methyl-1H-pyrazole-5-carbonyl)piperazin-1-yl)-2-oxoethyl)-2-(methylamino)propanamide]"
14,> 25,"CN[C@@H](C)C(=O)N[C@H](C(=O)N1CCN(C(=O)c2cc3cccnc3n2C)CC1)C1CCCCC1 [Example 13, (S)-N-((S)-1-cyclohexyl-2-(4-(1-methyl-1H-pyrrolo[2,3-b]pyridine-2-carbonyl)piperazin-1-yl)-2-oxoethyl)-2-(methylamino)propanamide]"
15,50 to 75,"CN[C@@H](C)C(=O)N[C@H](C(=O)N1CCN(C(=O)c2cc3ccc(F)cc3n2C)CC1)C1CCCCC1 [Example 14, (S)-N-((S)-1-cyclohexyl-2-(4-(6-fluoro-1-methyl-1H-indole-2-carbonyl)piperazin-1-yl)-2-oxoethyl)-2-(methylamino)propanamide]"
16,> 75,"CN[C@@H](C)C(=O)N[C@H](C(=O)N1CCN(C(=O)c2cc3cc(F)ccc3n2C)CC1)C1CCCCC1 [Example 15, (S)-N-((S)-1-cyclohexyl-2-(4-(5-fluoro-1-methyl-1H-indole-2-carbonyl)piperazin-1-yl)-2-oxoethyl)-2-(methylamino)propanamide]"
17,50 to 75,"CN[C@@H](C)C(=O)N[C@H](C(=O)N1CCN(C(=O)c2cc3cccc(C)c3n2C)CC1)C1CCCCC1 [Example 16, (S)-N-((S)-1-cyclohexyl-2-(4-(1,7-dimethyl-1H-indole-2-carbonyl)piperazin-1-yl)-2-oxoethyl)-2-(methylamino)propanamide]"
18,> 25,"CN[C@@H](C)C(=O)N[C@H](C(=O)N1CCN(C(=O)c2ccc3cnn(C)c3c2)CC1)C1CCCCC1 [Example 17, (S)-N-((S)-1-cyclohexyl-2-(4-(1-methyl-1H-indazole-6-carbonyl)piperazin-1-yl)-2-oxoethyl)-2-(methylamino)propanamide]"
19,> 25,"CN[C@@H](C)C(=O)N[C@H](C(=O)N1CCN(C(=O)c2ccc3nc(C)n(C)c3c2)CC1)C1CCCCC1 [Example 18, (S)-N-((S)-1-cyclohexyl-2-(4-(1,2-dimethyl-1H-benzo[d]imidazole-6-carbonyl)piperazin-1-yl)-2-oxoethyl)-2-(methylamino)propanamide]"
20,> 25,"CN[C@@H](C)C(=O)N[C@H](C(=O)N1CCN(C(=O)c2ccc3nc(C)nn3c2)CC1)C1CCCCC1 [Example 19, (S)-N-((S)-1-cyclohexyl-2-(4-(2-methyl-[1,2,4]triazolo[1,5-a]pyridine-6-carbonyl)piperazin-1-yl)-2-oxoethyl)-2-(methylamino)propanamide]"
21,> 75,"CN[C@@H](C)C(=O)N[C@H](C(=O)N1CCN(C(=O)c2ccc3cc(C)cn3c2)CC1)C1CCCCC1 [Example 20, (S)-N-((S)-1-cyclohexyl-2-(4-(2-methylindolizine-6-carbonyl)piperazin-1-yl)-2-oxoethyl)-2-(methylamino)propanamide]"
22,> 25,"CN[C@@H](C)C(=O)N[C@H](C(=O)N1CCN(C(=O)c2ccn3cc(C)nc3c2)CC1)C1CCCCC1 [Example 21, (S)-N-((S)-1-cyclohexyl-2-(4-(2-methylimidazo[1,2-a]pyridine-7-carbonyl)piperazin-1-yl)-2-oxoethyl)-2-(methylamino)propanamide]"
23,25 to 50,"CN[C@@H](C)C(=O)N[C@H](C(=O)N1CCN(C(=O)c2ccc3nn(C)cc3c2)CC1)C1CCCCC1 [Example 22, (S)-N-((S)-1-cyclohexyl-2-(4-(2-methyl-2H-indazole-5-carbonyl)piperazin-l-yl)-2-oxoethyl)-2-(methylamino)propanamide]"
24,> 25,"CN[C@@H](C)C(=O)N[C@H](C(=O)N1CCN(C(=O)c2ccc3c(C)n(C)nc3c2)CC1)C1CCCCC1 [Example 23, (S)-N-((S)-1-cyclohexyl-2-(4-(2,3-dimethyl-2H-indazole-6-carbonyl)piperazin-1-yl)-2-oxoethyl)-2-(methylamino)propanamide]"
25,> 75,"CN[C@@H](C)C(=O)N[C@H](C(=O)N1CCN(C(=O)c2cc3ccc(OC)cc3n2C)C[C@H]1C)C1CCCCC1 [Example 24, (S)—N—((S)-1-cyclohexyl-2-((R)-4-(6-methoxy-1-methyl-1H-indole-2-carbonyl)-2-methylpiperazin-1-yl)-2-oxoethyl)-2-(methylamino)propanamide Hydrochloride]"
